{"source": "patent US8980569B2", "about": "“Chronic lymphocytic leukemia prognosis and treatment” (Duke University, priority 2007, dated 2015)", "tested_on": "CLL cells", "conditions": "freshly isolated CLL cells"}
{"smiles": "COc1cc2c(cc1O)CC[C@@H]1[C@@H]2CC[C@]2(C)[C@@H](O)CC[C@@H]12", "note": "[2-ME, 2-methoxyestradiol]", "values": [{"measurement": "percent cytotoxicity", "setting": "at 10 μM, 72 hours", "value": 71, "unit": "%"}, {"measurement": "EC50", "setting": "read-out: effective dose for 50% killing (ED50), incubated 72 hours", "value": 7.5, "unit": "µM"}]}
